Columns and labels:
[1] = test system: anti-nicotine IgG; assay: Anti-nicotine IgG in immunized mice (ELISA); type: in vivo, C57BL6 mice; settings: data of FIGS. 34 and 35
[2] = test system: CD4 T cells from OT-II donor mice; assay: In vivo CD4 T cell activation (CFSE-labeled OT-II cells); design: species or system C57BL6J mice; settings: three days after footpad immunization; CpG adjuvant
Procedure: Subsequently, immunization experiments were performed by injecting one footpad with free OVA or with nanoparticles composed of either PLA or PLGA that encapsulated an equivalent amount of OVA as a model antigen. All antigenic mixtures also contained CpG (a TLR9 agonist) as an adjuvant. The animals were injected, sacrificed three days after immunization, and OT-II T cell activation was assessed by flow cytometry in single-cell suspensions from different tissues.
By contrast, activated T cells divide and in the process split the fluorescent dye evenly between the two daughter cells resulting in an incremental decrease in fluorescence intensity upon each successive division. Thus, the greater the left shift in CFSE, fluorescence the stronger T cells were activated.

Row | Compound | production of nicotine antibodies [1] | local T cell proliferation in distal lymphoid tissues (brachial lymph node, spleen) [2]
1 | CN1CCCC1c1cccnc1 (centres unmarked) [free nicotine, nicotine] | does not elicit the production of nicotine antibodies | –
2 | free OVA: free chicken ovalbumin (OVA) model antigen, mixed with CpG adjuvant | – | only undivided cells or cells with very low CFSE content
